# In patent US10202378B2, “Therapeutic compounds and uses thereof” (GENENTECH, INC., priority 2015, dated 2019):
# Experiments:
# TAF1-BD2 = TAF1-BD2 (Homo sapiens, UniProt P21675); test: TAF1-BD2 TR-FRET Binding Assay; settings: read-out: TAF1-BD2 HTRF IC50
# TAF1-BD1 = TAF1-BD1 (Homo sapiens, UniProt P21675); test: TAF1-BD1 TR-FRET Binding Assay; settings: read-out: TAF1-BD1 HTRF IC50
SMILES,IC50 (TAF1-BD2) [nM],IC50 (TAF1-BD1) [nM]
"CCOC(=O)c1c(C)[nH]c2c(=O)n(C)cc(C#CC(O)(CC)c3ccccc3)c12 (centres unmarked) [Example 75, ethyl 4-(3-hydroxy-3-phenyl-pent-1-ynyl)-2,6-dimethyl-7-oxo-1H-pyrrolo[2,3-c]pyridine-3-carboxylate]",76.5,427
"CCOC(=O)c1c(C)[nH]c2c(=O)n(C)cc(C#CC3CCCCC3)c12 [Example 79, ethyl 4-(2-cyclohexylethynyl)-2,6-dimethyl-7-oxo-1H-pyrrolo[2,3-c]pyridine-3-carboxylate]",584,1330
"CCOC(=O)c1c(C)[nH]c2c(=O)n(C)cc(C#CC3(O)CCCCC3)c12 [Example 81, ethyl 4-[2-(1-hydroxycyclohexyl)ethynyl]-2,6-dimethyl-7-oxo-1H-pyrrolo[2,3-c]pyridine-3-carboxylate]",63.2,257
"CCOC(=O)c1c(C)[nH]c2c(=O)n(C)cc(C#CC3(O)C(=O)N(C)c4ccccc43)c12 (centres unmarked) [Example 86, ethyl 4-[2-(3-hydroxy-1-methyl-2-oxo-indolin-3-yl)ethynyl]-2,6-dimethyl-7-oxo-1H-pyrrolo[2,3-c]pyridine-3-carboxylate]",98.1,581
"CCOC(=O)c1c(C)[nH]c2c(=O)n(C)cc(C#CC3(O)CCOCC3)c12 [Example 88, ethyl 4-[2-(4-hydroxytetrahydropyran-4-yl)ethynyl]-2,6-dimethyl-7-oxo-1H-pyrrolo[2,3-c]pyridine-3-carboxylate]",98.6,1110
"CCOC(=O)c1c(C)[nH]c2c(=O)n(C)cc(C#CC(O)(c3ccccc3)C(F)F)c12 (centres unmarked) [Example 89, ethyl 4-(4,4-difluoro-3-hydroxy-3-phenyl-but-1-ynyl)-2,6-dimethyl-7-oxo-1H-pyrrolo[2,3-c]pyridine-3-carboxylate]",32.9,278
"CCOC(=O)c1c(C)[nH]c2c(=O)n(C)cc(C#CC(O)(c3cccc(Oc4ccccc4)c3)C(F)(F)F)c12 (centres unmarked) [Example 90, ethyl 2,6-dimethyl-7-oxo-4-[4,4,4-trifluoro-3-hydroxy-3-(3-phenoxyphenyl)but-1-ynyl]-1H-pyrrolo[2,3-c]pyridine-3-carboxylate]",699,2280
"CCOC(=O)c1c(C)[nH]c2c(=O)n(C)cc(C#CC(O)(c3cccc(-c4cccnc4)c3)C(F)(F)F)c12 (centres unmarked) [Example 100, ethyl 2,6-dimethyl-7-oxo-4-[4,4,4-trifluoro-3-hydroxy-3-[3-(3-pyridyl)phenyl]but-1-ynyl]-1H-pyrrolo[2,3-c]pyridine-3-carboxylate]",27.3,189
"CCOC(=O)c1c(C)[nH]c2c(=O)n(C)cc(C#CC(O)(c3cccc(-c4ccccc4OC)c3)C(F)(F)F)c12 (centres unmarked) [Example 101, ethyl 2,6-dimethyl-7-oxo-4-[4,4,4-trifluoro-3-hydroxy-3-[3-(2-methoxyphenyl)phenyl]but-1-ynyl]-1H-pyrrolo[2,3-c]pyridine-3-carboxylate]",608,4330
"CCOC(=O)c1c(C)[nH]c2c(=O)n(C)cc(C#CC(O)(c3cccc(-c4ccccc4C)c3)C(F)(F)F)c12 (centres unmarked) [Example 102, ethyl 2,6-dimethyl-7-oxo-4-[4,4,4-trifluoro-3-hydroxy-3-[3-(o-tolyl)phenyl]but-1-ynyl]-1H-pyrrolo[2,3-c]pyridine-3-carboxylate]",912,7510
"Cc1[nH]c2c(=O)n(C)cc(C#CC(C)(C)O)c2c1C(=O)OCc1ccccc1 [Example 103, Benzyl 4-(3-hydroxy-3-methyl-but-1-ynyl)-2,6-dimethyl-7-oxo-1H-pyrrolo[2,3-c]pyridine-3-carboxylate]",34.5,151
"Cc1[nH]c2c(=O)n(C)cc(C#CC(O)(c3ccccc3)C(F)(F)F)c2c1C(=O)OC(C)c1ccccc1 (centres unmarked) [Example 104, 1-phenylethyl 2,6-dimethyl-7-oxo-4-(4,4,4-trifluoro-3-hydroxy-3-phenyl-but-1-ynyl)-1H-pyrrolo[2,3-c]pyridine-3-carboxylate]",1200,3210
"Cc1[nH]c2c(=O)n(C)cc(C#CC(C)(O)C3CC3)c2c1C(=O)OCc1cccc2cccnc12 (centres unmarked) [Example 105, 8-quinolylmethyl 4-(3-cyclopropyl-3-hydroxy-but-1-ynyl)-2,6-dimethyl-7-oxo-1H-pyrrolo[2,3-c]pyridine-3-carboxylate]",34.6,93.9
"Cc1[nH]c2c(=O)n(C)cc(C#CC(O)(c3ccccc3)C(F)(F)F)c2c1C(=O)OCc1ccccc1C#N (centres unmarked) [Example 107, (2-cyanophenyl)methyl 2,6-dimethyl-7-oxo-4-(4,4,4-trifluoro-3-hydroxy-3-phenyl-but-1-ynyl)-1H-pyrrolo[2,3-c]pyridine-3-carboxylate]",344,1630
"Cc1ccccc1COC(=O)c1c(C)[nH]c2c(=O)n(C)cc(C#CC(O)(c3ccccc3)C(F)(F)F)c12 (centres unmarked) [Example 108, o-tolylmethyl 2,6-dimethyl-7-oxo-4-(4,4,4-trifluoro-3-hydroxy-3-phenyl-but-1-ynyl)-1H-pyrrolo[2,3-c]pyridine-3-carboxylate]",1260,3350
"Cc1[nH]c2c(=O)n(C)cc(C#CC(C)(O)C3CC3)c2c1C(=O)OCc1nccs1 (centres unmarked) [Example 109, thiazol-2-ylmethyl 4-(3-cyclopropyl-3-hydroxy-but-1-ynyl)-2,6-dimethyl-7-oxo-1H-pyrrolo[2,3-c]pyridine-3-carboxylate]",67.9,222
"Cc1[nH]c2c(=O)n(C)cc(C#CC(C)(C)O)c2c1C(=O)OCc1ccccc1C(F)(F)F [Example 116, [2-(trifluoromethyl)phenyl]methyl 4-(3-hydroxy-3-methyl-but-1-ynyl)-2,6-dimethyl-7-oxo-1H-pyrrolo[2,3-c]pyridine-3-carboxylate]",27.7,105
"Cc1[nH]c2c(=O)n(C)cc(C#CC(C)(C)O)c2c1C(=O)OC(C)c1ccccc1 (centres unmarked) [Example 120, 1-phenylethyl 4-(3-hydroxy-3-methyl-but-1-ynyl)-2,6-dimethyl-7-oxo-1H-pyrrolo[2,3-c]pyridine-3-carboxylate]",83.2,260
"C=CCCn1cc(C#CC(C)(O)C2CC2)c2c(C(=O)OCC(C)C)c(C)[nH]c2c1=O (centres unmarked) [Example 122, isobutyl 6-but-3-enyl-4-(3-cyclopropyl-3-hydroxy-but-1-ynyl)-2-methyl-7-oxo-1H-pyrrolo[2,3-c]pyridine-3-carboxylate]",116,1710

# Further lines, results first:
IC50 (TAF1-BD2) [nM],IC50 (TAF1-BD1) [nM],SMILES
777,561,"CCOC(=O)c1c(C)[nH]c2c(=O)n(C)cc(C#CC(C)(C)C)c12 [Example 76, ethyl 4-(3,3-dimethylbut-1-ynyl)-2,6-dimethyl-7-oxo-1H-pyrrolo[2,3-c]pyridine-3-carboxylate]"
38.5,616,"CCOC(=O)c1c(C)[nH]c2c(=O)n(C)cc(C#CC(C)(C)O)c12 [Example 78, ethyl 4-(3-hydroxy-3-methyl-but-1-ynyl)-2,6-dimethyl-7-oxo-1H-pyrrolo[2,3-c]pyridine-3-carboxylate]"
337,1750,"CCOC(=O)c1c(C)[nH]c2c(=O)n(C)cc(C#CCCO)c12 [Example 82, ethyl 4-(4-hydroxybut-1-ynyl)-2,6-dimethyl-7-oxo-1H-pyrrolo[2,3-c]pyridine-3-carboxylate]"
181,770,"CCOC(=O)c1c(C)[nH]c2c(=O)n(C)cc(C#CC(C)(O)C3CCOCC3)c12 (centres unmarked) [Example 87, ethyl 4-(3-hydroxy-3-tetrahydropyran-4-yl-but-1-ynyl)-2,6-dimethyl-7-oxo-1H-pyrrolo[2,3-c]pyridine-3-carboxylate]"
29.4,116,"Cc1[nH]c2c(=O)n(C)cc(C#CC(C)(C)O)c2c1C(=O)OCc1ccccc1C#N [Example 110, (2-cyanophenyl)methyl 4-(3-hydroxy-3-methyl-but-1-ynyl)-2,6-dimethyl-7-oxo-1H-pyrrolo[2,3-c]pyridine-3-carboxylate]"
37.9,259,"Cc1[nH]c2c(=O)n(C)cc(C#CC(C)(C)O)c2c1C(=O)OCc1ccccc1CO [Example 111, [2-(hydroxymethyl)phenyl]methyl 4-(3-hydroxy-3-methyl-but-1-ynyl)-2,6-dimethyl-7-oxo-1H-pyrrolo[2,3-c]pyridine-3-carboxylate]"
610,4620,"Cc1[nH]c2c(=O)n(C)cc(C#CC(C)(C)O)c2c1C(=O)OCc1ccncc1 [Example 112, 4-pyridylmethyl 4-(3-hydroxy-3-methyl-but-1-ynyl)-2,6-dimethyl-7-oxo-1H-pyrrolo[2,3-c]pyridine-3-carboxylate]"
24,123,"COc1ccccc1COC(=O)c1c(C)[nH]c2c(=O)n(C)cc(C#CC(C)(C)O)c12 [Example 113, (2-methoxyphenyl)methyl-4-(3-hydroxy-3-methyl-but-1-ynyl)-2,6-dimethyl-7-oxo-1H-pyrrolo[2,3-c]pyridine-3-carboxylate]"
34.1,282,"Cc1[nH]c2c(=O)n(C)cc(C#CC(C)(C)O)c2c1C(=O)OCc1ccccn1 [Example 115, 2-pyridylmethyl 4-(3-hydroxy-3-methyl-but-1-ynyl)-2,6-dimethyl-7-oxo-1H-pyrrolo[2,3-c]pyridine-3-carboxylate]"
38.9,167,"Cc1cccc(COC(=O)c2c(C)[nH]c3c(=O)n(C)cc(C#CC(C)(C)O)c23)c1 [Example 118, m-tolylmethyl 4-(3-hydroxy-3-methyl-but-1-ynyl)-2,6-dimethyl-7-oxo-1H-pyrrolo[2,3-c]pyridine-3-carboxylate]"
26.7,145,"Cc1[nH]c2c(=O)n(C)cc(C#CC(C)(C)O)c2c1C(=O)OCc1ccccc1F [Example 119, (2-fluorophenyl)methyl 4-(3-hydroxy-3-methyl-but-1-ynyl)-2,6-dimethyl-7-oxo-1H-pyrrolo[2,3-c]pyridine-3-carboxylate]"
21.5,85,"Cc1ccccc1COC(=O)c1c(C)[nH]c2c(=O)n(C)cc(C#CC(C)(C)O)c12 [Example 121, o-tolylmethyl 4-(3-hydroxy-3-methyl-but-1-ynyl)-2,6-dimethyl-7-oxo-1H-pyrrolo[2,3-c]pyridine-3-carboxylate]"
